# Laboratory results published in publication PMC6982876, “Synthesis of Novel Benzodifuranyl; 1,3,5-Triazines; 1,3,5-Oxadiazepines; and Thiazolopyrimidines Derived from Visnaginone and Khellinone as Anti-Inflammatory and Analgesic Agents” (Molecules, 2020).
# Marks after values point to notes of the source that are not given here.
# What was measured:
# human recombinant COX-2 = target: T1, human recombinant COX-2 (Homo sapiens, UniProt P35354); assay: In vitro COX inhibitor screening assay (EIA kit, Cayman), COX-2; format: biochemical; details: for COX2 (SI) selectivity index: COX-1 IC50 / COX-2 IC50; for IC50: COX-2, mean of two determinations, enzyme kit, read-out: COX2 IC50
# T1 construct: purchased Cayman Chemical, Ann Arbor, MI, USA 560131
# T1 sequence (P35354 18-604): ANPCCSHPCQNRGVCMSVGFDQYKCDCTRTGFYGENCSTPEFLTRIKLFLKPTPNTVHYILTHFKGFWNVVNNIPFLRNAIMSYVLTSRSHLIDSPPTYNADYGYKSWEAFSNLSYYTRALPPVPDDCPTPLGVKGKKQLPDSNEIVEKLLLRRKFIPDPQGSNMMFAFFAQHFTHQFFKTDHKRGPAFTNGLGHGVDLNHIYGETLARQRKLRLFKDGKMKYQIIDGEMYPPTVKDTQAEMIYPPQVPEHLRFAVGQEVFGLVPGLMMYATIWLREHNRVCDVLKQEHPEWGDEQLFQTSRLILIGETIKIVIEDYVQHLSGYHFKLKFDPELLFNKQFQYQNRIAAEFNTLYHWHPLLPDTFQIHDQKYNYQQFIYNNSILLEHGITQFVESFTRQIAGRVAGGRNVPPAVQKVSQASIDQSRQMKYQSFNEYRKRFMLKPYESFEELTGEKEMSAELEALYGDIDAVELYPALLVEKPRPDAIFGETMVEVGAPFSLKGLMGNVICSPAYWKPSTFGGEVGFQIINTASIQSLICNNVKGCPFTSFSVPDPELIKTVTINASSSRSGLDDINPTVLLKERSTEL
# Method: (§1) Furthermore, the selectivity index for COX-2 (COX-1 IC50 / COX-2 IC50) was calculated for the compounds.
# [1] = test system: interleukin-1 beta (IL-1 β); assay: ELISA of serum interleukin-1 beta after paw edema test; format: in vivo, rats; details: rat serum at the end of the paw edema test, mean ± SEM, n = 5
# Method: IL1 is one of the important inflammatory mediators and is used to confirm the anti-inflammatory activities of new anti-inflammatory compounds. At the end of the paw edema test, blood samples were collected from the orbital axis of the eye under light ether anesthesia. Sera were separated after centrifugation of blood at 5000 rpm for 15 min; the sera were stored at –80 °C until the ELISA assay was performed according to the manufacturer instructions.
# ovine COX-1 = target: T2, ovine COX-1 (Ovis aries, UniProt P05979); assay: In vitro COX inhibitor screening assay (EIA kit, Cayman), COX-1; format: biochemical; details: mean of two determinations, enzyme kit, read-out: COX1 IC50
# T2 construct: purchased Cayman Chemical, Ann Arbor, MI, USA 560131
# T2 sequence (P05979 25-600): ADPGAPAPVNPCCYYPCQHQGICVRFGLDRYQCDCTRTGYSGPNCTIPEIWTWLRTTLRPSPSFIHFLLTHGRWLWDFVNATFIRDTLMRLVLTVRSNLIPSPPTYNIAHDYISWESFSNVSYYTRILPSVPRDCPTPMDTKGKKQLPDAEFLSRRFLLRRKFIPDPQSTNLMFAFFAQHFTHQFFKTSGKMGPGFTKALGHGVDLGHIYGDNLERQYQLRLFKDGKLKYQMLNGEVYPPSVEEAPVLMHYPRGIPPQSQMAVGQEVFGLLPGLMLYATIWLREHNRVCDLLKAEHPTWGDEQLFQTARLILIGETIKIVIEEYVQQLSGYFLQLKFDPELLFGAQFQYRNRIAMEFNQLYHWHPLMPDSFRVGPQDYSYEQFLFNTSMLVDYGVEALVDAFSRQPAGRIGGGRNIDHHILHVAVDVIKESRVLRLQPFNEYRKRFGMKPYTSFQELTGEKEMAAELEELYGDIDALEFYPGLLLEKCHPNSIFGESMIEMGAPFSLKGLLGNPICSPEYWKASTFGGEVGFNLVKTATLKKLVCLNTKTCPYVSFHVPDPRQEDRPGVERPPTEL
# Method: as §1
# [2] = test system: carrageenan-induced paw edema in rats; assay: Carrageenan-induced paw edema (anti-inflammatory activity); format: in vivo; details: 10 mg/kg oral; for % Change in Paw Height (Mean ± SEM): n = 5
# Method: Albino rats (150–180 g) were used. The rats were divided into 11 experimental groups of five rats each. One hour after oral administration of the compounds (10 mg/kg), 0.1 mL of 1% carrageenan solution was injected in the left hind paw of each animal. Rat paw volumes were measured with a digital caliber plethysmometer (UGO Basile, Varese, Italy) used to measure inflammation height at 0, 1, 2, and 3 h after carrageenan injection. The percentage increase in inflammation in the left hind paw, in comparison to the uninjected right hind paw, was determined, calculated, and expressed as the amount of inflammation. […] The anti-inflammatory activity of the selected analgesic compounds after 3 h was expressed as percentage inhibition of edema, which was calculated according to the following equation: (2) Inhibition of edema (%) =Vcont−Vtest/Vcont×100* where V cont is the edema volume in the control group, and V test is the edema volume in the group of the screened compound.
# [3] = test system: acetic acid-induced writhing in mice; assay: Acetic acid-induced writhing test (analgesic activity); format: in vivo; details: 10 mg/kg p.o., n = 5; for Writhing Number in 20 min (Mean ± SEM): acetic acid 1 h after dosing; for Analgesic Activity (% protection): writhing test
# Method: The analgesic activity of the compounds was performed using the writhing test as described by Gawade et al.. Mice weight ranged from 25 to 30 g. Then, mice were divided into 18 different groups, each containing five animals. The animals fasted for 8 h before the experiment. Administration of the compounds (10 mg/kg, p.o.) was performed orally. Equal doses of diclofenac as the reference drug and saline as a negative control were also administrated orally. Writhing was induced one hour after compound administration by using 0.1 mL of 1% glacial acetic acid at a volume of 0.1 mL/10 g body weight. The number of writhing responses (stretching of the abdomen, extension of hind limbs, twisting of the trunk, and elongation of the body) observed was counted for 20 min. The protection percentile against acetic acid-induced writhing was calculated according to the following formula: (1) Analgesic activity (%) =n−n′/n×100* where n is the mean number of writhes of the control group, and n’ is the mean number of writhes of the tested compound group.
Compound,COX2 (SI) selectivity index (human recombinant COX-2),IC50 (human recombinant COX-2) [nM],IL-1 β Concentration [1],IC50 (ovine COX-1) [µM],% Change in Paw Height (Mean ± SEM) ([2]; 1 hr after carrageenan),% Change in Paw Height (Mean ± SEM) ([2]; 2 hr after carrageenan),Anti-Inflammatory Activity (% Inhibition of Edema) ([2]; 3 hr after carrageenan) [%],% Change in Paw Height (Mean ± SEM) ([2]; 3 hr after carrageenan),melting point [°C],Writhing Number in 20 min (Mean ± SEM) [3],Analgesic Activity (% protection) [3]
"COc1c2occc2c(OC)c2c(C)c(C3=NC4=CC(=O)N5C(=O)C(=Cc6ccccc6)SC5N4C(=O)C(=Cc4ccccc4)O3)oc12 (centres unmarked) [Compound 13d, 2,10-di(benzylidene)-8-(4,8-dimethoxy-3-methylbenzo[1,2-b:5,4-b`]difuran-2-yl)-5H, 12aH -thiazolo[2’,3’:2,3]pyrimido[6,1-d][1,3,5]oxadiazepine-3,5,11(2H,10H)-trione]",91,63,38 ± 0.62 ^b Pg /mL,5.71,0.26 ± 0.01 ^a %,0.20 ± 0.02 ^a %,60,0.23 ± 0.02 ^a %,> 350,32 ± 1.4 ^a,43 ± 1.90 ^a %
"COc1c2ccoc2cc2oc(C3=NC4=CC(=O)N5C(=O)C(=Cc6ccccc6)SC5N4C(=O)C(=Cc4ccccc4)O3)c(C)c12 (centres unmarked) [Compound 13a, 2,10-di(benzylidene)-8-(4-methoxy-3-methylbenzo[1,2-b:5,4-b`]difuran-2-yl)-5H,12aH-thiazolo[2’,3’:2,3]pyrimido[6,1-d][1,3,5]oxadiazepine-3,5,11(2H,10H)-trione]",90,64,39 ± 0.31 ^b Pg /mL,5.79,0.27 ± 0.02 ^a %,0.21 ± 0.01 ^a %,59,0.24 ± 0.01 ^a %,> 350,33 ± 1.9 ^a,42 ± 1.90 ^a %
"COc1c2ccoc2cc2oc(C3=NC4=CC(=O)N5C(=O)C(=Cc6ccc(Cl)cc6)SC5N4C(=O)C(=Cc4ccc(Cl)cc4)O3)c(C)c12 (centres unmarked) [Compound 13b, 2,10-bis(4-chlorobenzylidene)-8-(4-methoxy-3-methylbenzo[1,2-b:5,4-b`]difuran-2-yl)-5H, 12aH-thiazolo[2’,3’:2,3]pyrimido[6,1-d][1,3,5]oxadiazepine-3,5,11(2H,10H)-trione]",95,55,35 ± 0.28 ^b Pg /mL,5.2,0.23 ± 0.02 ^a %,0.18 ± 0.01 ^a %,63,0.20 ± 0.02 ^a %,> 350,29 ± 1.5 ^a,46 ± 1.6 ^a %
"COc1c2occc2c(OC)c2c(C)c(C3=NC4=CC(=O)N5C(=O)C(=Cc6ccc(Cl)cc6)SC5N4C(=O)C(=Cc4ccc(Cl)cc4)O3)oc12 (centres unmarked) [Compound 13e, 2,10-bis(4-chlorobenzylidene)-8-(4,8-dimethoxy-3-methylbenzo[1,2-b:5,4-b`]difuran-2-yl)-5H,12aH-thiazolo[2’,3’:2,3]pyrimido[6,1-d][1,3,5]oxadiazepine-3,5,11(2H,10H)-trione]",96,53,34 ± 0.33 ^b Pg /mL,5.1,0.22 ± 0.01 ^a %,0.17 ± 0.02 ^a %,64,0.19 ± 0.02 ^a %,> 350,28 ± 1.3 ^a,47 ± 1.7 ^a %
"COc1c2occc2c(OC)c2c(C)c(C3=NC4=CC(=O)N5C(=O)CSC5N4C(=O)CO3)oc12 (centres unmarked) [Compound 12b, 8-(4,8-dimethoxy-3-methylbenzo[1,2-b:5,4-b`]difuran-2-yl)-5H,12aH-thiazolo[2’,3’:2,3] pyrimido[6,1-d][1,3,5]oxadiazepine-3,5,11(2H,10H)-trione]",87,70,40 ± 0.22 ^b Pg /mL,6.1,0.28 ± 0.01 ^a %,0.22 ± 0.02 ^a %,58,0.25 ± 0.02 ^a %,> 350,34 ± 1.7 ^a,41 ± 1.10 ^a %
"COc1c2ccoc2cc2oc(C(=Nc3cc(N4CCOCC4)nc(N4CCOCC4)n3)N3CCOCC3)c(C)c12 [Compound 10b, N-(2,6-dimorpholinopyrimidin-4-yl)-1-(4-methoxy-3-methylbenzo [1,2-b: 5,4-b`]difuran-2-yl)-1-morpholinomethanimine]",96,48,33 ± 0.38 ^b Pg /mL,4.6,0.21 ± 0.02 ^a %,0.16 ± 0.01 ^a %,65,0.18 ± 0.01 ^a %,> 350,27 ± 1.1 ^a,48 ± 1.5 ^a %
"COc1c2ccoc2cc2oc(C3=NC4=CC(=O)N5C(=O)CSC5N4C=N3)c(C)c12 (centres unmarked) [Compound 11a, 8-(4-methoxy-3-methylbenzo[1,2-b:5,4-b`]difuran-2-yl)-2-hydro-5H,11aH-thiazolo[2’,3’: 2,3]pyrimido[1,6-a][1,3,5]triazine-3,5-dione]",81,85,43 ± 1.15 ^b Pg /mL,6.85,0.30 ± 0.02 ^a %,0.24 ± 0.01 ^a %,55,0.28 ± 0.01 ^a %,> 350,39 ± 2.1 ^a,36 ± 0.75 ^a %
